{
  "source": "ChEMBL document CHEMBL6074642",
  "about": "“Natural and Bioinspired Lipidic Alkynylcarbinols as Leishmanicidal, Antiplasmodial, Trypanocidal, Fungicidal, Antibacterial, and Antimycobacterial Agents” (J Nat Prod, 2024)",
  "tested_on": "Mycobacterium tuberculosis",
  "assay": "Antibacterial activity against multi-drug resistant Mycobacterium tuberculosis assessed as reduction in microbial growth",
  "format": "functional",
  "data": [
    {"smiles": "C=C[C@@H](O)C#CC#C[C@@H](O)/C=C\\CCCCCCC", "note": "[FALCARINDIOL]", "values": [
      {"measurement": "MIC", "result": 32, "unit": "µg/mL"}
    ]}
  ]
}
